Results as given in patent publication US20250059165A1, “PIPERIDINYLPYRIDINYLCARBONITRILE DERIVATIVES AS INHIBITORS OF GLUTAMINYL-PEPTIDE CYCLOTRANSFERASE AND GLUTAMINYL-PEPTIDE CYCLOTRANSFERASE LIKE PROTEIN” (Boehringer Ingelheim International GmbH, priority 2023, published 2025).

How the values were obtained:
[1] = test system: SIRPα signalling induced by Raji cells; experiment: Assay B: SIRPα signalling assay using Raji cells; type: cell-based; settings: Homo sapiens, 48 h compound incubation, Jurkat PathHunter SIRPαV1 reporter cells, read-out: Inhibition of SIRPα signalling induced by Raji cells: IC50
Procedure: (§1) Two cell types are independently used: the Raji cell line (lymphoblast-like human cell line derived from B lymphocytes from a Burkitt's lymphoma patient in 1963) and A549 cells (adenocarcinomic human alveolar basal epithelial cells).
(§2) Test compounds were dissolved in 100% DMSO and serially diluted into a white 384-well microtiter cell culture plate (PerkinElmer #60076780 in case of Raji assay; PDL-coated plates Greiner #781945 in case of A549 assay). 5000 Raji cells (ATCC #CC86) or 5000 A549 cells (ATCC #CCL-185) in Assay Complete Cell Plating reagent 30 (DiscoverX 93-0563R30B) were added per well. The assay plate was incubated for 48 h at 37° C., 95% humidity and 5% CO2. 15000 reporter cells (Jurkat PathHunter SIRPαV1, DiscoverX #93-1135C19) were added to each well, and the plate was incubated for 5 h at 37° C., 95% humidity and 5% CO2. Bioassay reagent 1 of the PathHunter Bioassay detection kit (DiscoverX 93-0001) was added to each well of the plate using a multichannel pipette followed by a 15 min incubation at room temperature. Afterwards bioassay reagent 2 was added followed by […] incubation at room temperature (incubation in the dark). The analysis of the data was performed using the luminescence signal generated by beta-galactosidase in the PathHunter reporter cell line. The luminescence measurement was done using a Pherastar Multi-Mode Reader. Dose-response curves & IC50 data were calculated with 4-parameter sigmoidal dose response formula.

[2] = test system: SIRPα signalling induced by A549 cells; experiment: Assay B: SIRPα signalling assay using A549 cells; type: cell-based; settings: Homo sapiens, 48 h compound incubation, Jurkat PathHunter SIRPαV1 reporter cells, read-out: Inhibition of SIRPα signalling induced by A549 cells: IC50
Procedure: as §1, §2

QPCT = biological target: T1, QPCT (Homo sapiens, UniProt Q16769); experiment: Assay A: biochemical QPCT activity assay (MALDI-TOF MS, CD47 peptide substrate); settings: 0.5 nM enzyme, 20 μM CD47 peptide substrate; read-out: Inhibition of QPCT: IC50
T1 construct: purchased Origine (OriGene) TP700028
Procedure: (§3) QPCT or QPCTL dependent conversion of N-terminal glutamine to pyroglutamate of CD47 was monitored via MALDI-TOF MS. Test compounds were dissolved in 100% DMSO and serially diluted into clear 1,536-well microtiter plates. […] The plates were incubated for 10 min in a humidified incubator at 24° C. Subsequently, 2.5 μL of CD47 peptide substrate surrogate (^19[…]^33) was added to each well (final concentration: 10 μM for QPCTL/20 μM for QPCT). […] The plates were sealed with an adhesive foil, mixed for 30 s at 1,000 rpm and stored at room temperature until preparation of the MALDI target plates. MALDI target plates were prepared as described previously. […] QPCT or QPCTL activity was monitored by calculating the ratio between product and internal standard signals followed by normalization to high (100% activity) and low (0% activity) controls. Determination of compound potencies was obtained by fitting the dose-response data to a four-parameter logistical equation.

QPCTL = biological target: T2, QPCTL (Homo sapiens, UniProt Q9NXS2); experiment: Assay A: biochemical QPCTL activity assay (MALDI-TOF MS, CD47 peptide substrate); settings: 0.5 nM enzyme, 10 μM CD47 peptide substrate; read-out: Inhibition of QPCTL: IC50
T2 construct: made in house
Procedure: as §3

[3] = Assay C: permeability in CACO-2 cells; type: in vitro ADME; settings: human, pH 7.2; for efflux ratio: Caco-2, Permeability B-A/Permeability A-B; for Papp A→B: Caco-2, apical to basolateral
Procedure: Caco-2 cells (1−2×10^5 cells/1 cm^2 area) are seeded on filter inserts (Costar transwell polycarbonate or PET filters, 0.4 µm pore size) and cultured (DMEM) for 10 to 25 days. Compounds are dissolved in appropriate solvent (like DMSO, 1-20 mM stock solutions). […] The transport solution (TL) is applied to the apical or basolateral donor side for measuring A-B or B-A permeability (3 filter replicates), respectively. Samples are collected at the start and end of experiment from the donor and at various time intervals for up to 2 hours also from the receiver side for concentration measurement by HPLC-MS/MS or scintillation counting. Sampled receiver volumes are replaced with fresh receiver solution. Efflux Ratio (ER)=Permeability B-A/Permeability A-B

T2 sequence (Q9NXS2 whole entry): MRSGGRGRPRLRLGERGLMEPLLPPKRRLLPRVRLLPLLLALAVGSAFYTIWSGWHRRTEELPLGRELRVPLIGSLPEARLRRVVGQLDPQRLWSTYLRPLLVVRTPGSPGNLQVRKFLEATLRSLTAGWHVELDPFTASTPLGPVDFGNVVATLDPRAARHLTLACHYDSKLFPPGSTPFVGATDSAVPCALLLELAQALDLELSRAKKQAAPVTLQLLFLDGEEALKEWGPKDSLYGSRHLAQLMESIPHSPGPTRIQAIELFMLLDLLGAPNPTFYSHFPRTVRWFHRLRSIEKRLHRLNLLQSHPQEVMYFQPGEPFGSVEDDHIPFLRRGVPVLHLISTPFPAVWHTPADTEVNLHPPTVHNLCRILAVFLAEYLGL
T1 sequence (Q16769 29-361): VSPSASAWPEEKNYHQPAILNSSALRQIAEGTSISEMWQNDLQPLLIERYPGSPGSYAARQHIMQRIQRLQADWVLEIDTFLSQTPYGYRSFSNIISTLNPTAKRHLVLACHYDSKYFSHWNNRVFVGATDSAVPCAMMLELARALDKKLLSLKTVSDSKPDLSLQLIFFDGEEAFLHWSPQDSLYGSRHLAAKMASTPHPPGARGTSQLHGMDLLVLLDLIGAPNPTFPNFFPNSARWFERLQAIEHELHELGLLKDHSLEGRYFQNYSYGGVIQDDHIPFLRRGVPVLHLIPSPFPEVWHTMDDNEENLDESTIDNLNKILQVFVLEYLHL

Row | IC50 [1] [nM] | IC50 [2] [nM] | IC50 (QPCT) [nM] | IC50 (QPCTL) [nM] | efflux ratio [3] | Papp A→B [3] [nm/s] | SMILES
1 | 53 | 30 | 2 | 1 | 6.2 | 130 | Cn1cnnc1C1(F)CCN(c2c(C#N)ccnc2-c2cnc3nc(-c4cccc(Cl)c4)ccn23)CC1 [Example 33]
2 | 8 | 12 | 1 | 1 | 65 | 2 | Cn1c(N)nnc1C1CCN(c2ncccc2-c2ccc(F)nc2)CC1 [Prior art Compound 6, reference compound]
